US10197579B2, “Methods for measurement of inhibition of c-Jun N-terminal kinase in skin” (Signal Pharmaceuticals, LLC, priority 2014, dated 2019)

Tested on: phosphorylation of c-Jun at Ser63 in HEKa cells
Experiment: UVB-induced c-Jun Ser63 phosphorylation in HEKa keratinocytes (Western immunoblotting)
Format: cell-based, Human
Settings: HEKa cells from four donors; 50 mJ/cm^2 UVB; Compound 1 added 1 hour before and kept 30 minutes after irradiation; nuclear extract, Western blot (FIGS. 1-5)
Protocol: Adult Normal Human […] Keratinocytes (HEKa) were obtained from ScienCell. Cells were plated in 10 cm dishes and incubated to allow attachment and then serum starved overnight. Compound 1 was added 1 hour before the cells were irradiated with 50 mJ/cm^2 UVB. Cells were incubated with Compound 1 for an additional 30 minutes after UVB irradiation. Cells were then lysed and nuclear and cytoplasmic proteins were isolated using the Nuclear Extraction kit by Active Motif. Protein was run on 10% tris glycine gels and transferred to nitrocellulose membranes. Blots were blocked for 1 hour. Total and phosphorylated c-Jun primary antibodies were added and incubated overnight. Licor secondary antibodies were added and blots were read on the Li-Cor Odyssey. 1-5. There was increased phosphorylation of c-Jun at Ser63 with 50 mJ/cm^2 UVB radiation, and inhibition by Compound 1 (FIGS. 1-5). There was also good separation of the nuclear and cytoplasmic proteins (c-Jun is only in the nucleus) (FIGS. 1-4).

Compound: C[C@@H]1CC[C@@H](Nc2nc(NC(C)(C)C)ncc2C(N)=O)C[C@H]1O [Compound 1, 2-(tert-butylamino)-4-((1R,3R,4R)-3-hydroxy-4-methylcyclohexylamino)-pyrimidine-5-carboxamide]
- inhibition of phosphorylation of c-Jun at Ser63 induced by UVB radiation: inhibits c-Jun phosphorylation at Ser63 in a dose dependent manor
